{"source": "patent US10935552B2", "about": "“Aie luminogens for visualization and treatment of cancer” (THE HONG KONG UNIVERSITY OF SCIENCE AND TECHNOLOGY, priority 2015, dated 2021)", "key": {"[1]": {"tested_on": "MDCK-II cells", "test": "Cell imaging under fluorescent microscope, MDCK-II normal cells", "assay_type": "cell-based, Canine", "details": "MDCK-II stained alone, 200 nM, 10 mins", "procedure": "(§1) Cell culture: HeLa cells were cultured in the MEM containing 10% FBS and 1% antibiotics (100 units/mL penicillin and 100 µg/mL streptomycin) in a 5% CO2 humidity incubator at 37° C. COS-7, MDA-MB-231, MCF-7, and MDCK-II cells were culture in the DMEM containing 10% FBS and antibiotics (100 units/mL penicillin and 100 µg/mL streptomycin) in a 5% CO2 humidity incubator at 37° C.\n(§2) Cell imaging: two different kind of cells were grown overnight on a 35 mm petri dish with a cover slip. The live cells were incubated with 200 nM of TPE-IQ-2O for 1, 5, 10, and 20 mins. In a typical experiment, 2 μL of a 10 mM stock solution of TPE-IQ-2O in DMSO was diluted to 2 mL with cell culture medium, followed by further dilution to desired concentration. The cells were imaged under a fluorescent microscope (BX41 Microscope) using the same excitation and emission filters: excitation filter=400-440 nm, dichroic mirror=455 nm, and emission filter=465 nm long pass.\nTwo different kinds of cells were grown overnight on a 35 mm petri dish with a cover slip. The live cells were incubated with 200 nM of TPE-IQ-2O for 10 mins. […] Condition: 200 nM 10 mins (Filter: both close; Channel 5; EX: 400-440 nm; Exposure time: bright field: 1000 ms Fluorescence: 1000 ms."}, "[2]": {"tested_on": "HeLa cells", "test": "Cell imaging under fluorescent microscope, HeLa cells", "assay_type": "cell-based, human", "details": "200 nM", "procedure": "as §1, §2\nTwo different kinds of cells were grown overnight on a 35 mm petri dish with a cover slip. The live cells were incubated with 200 nM of TPE-IQ-20 for 20, 10, 5, and 1 mins. The Hela cells were stained by TPE-IQ-2O; the COS-7 cells were stained by TPE-IQ-2O; the Hela cells and COS-7 cells were co-cultured and stained together by TPE-IQ-2O. Condition: 200 nM (Filter: both close; Channel 5; EX: 400-440 nm; Exposure time: bright field: 1000 ms Fluorescence: 1000 ms.\nTwo different kinds of cells were grown overnight on a 35 mm petri dish with a cover slip. The live cells were incubated with 200 nM of TPE-IQ-2O for 10 mins. The Hela cells were stained by TPE-IQ-2O; the MDCKII cells were stained by TPE-IQ-2O; the MDA-MB-231 cells and COS-7 cells were co-cultured and stained together by TPE-IQ-2O. Condition: 200 nM 10 mins (Filter: both close; Channel 5; EX: 400-440 nm; Exposure time: bright field: 1000 ms Fluorescence: 1000 ms.\n(§3) HepG2 cells (human hepatocarcinoma cell line), PC-9 cells (human lung adenocarcinoma cell line), Hela cells (human cervical carcinoma cell line), and LX2 cells (normal cell, human hepatic stellate cell line) were stained with 200 nM DPA-IQ for 10 min. Images were taken under the same equipment settings. Scale bar: 30 μm. Excitation wavelength: 400-440 nm."}, "[3]": {"tested_on": "COS-7 cells", "test": "Cell imaging under fluorescent microscope, COS-7 normal cells", "assay_type": "cell-based, simian", "details": "COS-7 stained alone, 200 nM, 1-20 min", "procedure": "Cell culture: HeLa cells were cultured in the MEM containing 10% FBS and 1% antibiotics (100 units/mL penicillin and 100 µg/mL streptomycin) in a 5% CO2 humidity incubator at 37° C. COS-7, MDA-MB-231, MCF-7, and MDCK-II cells were culture in the DMEM containing 10% FBS and antibiotics (100 units/mL penicillin and 100 µg/mL streptomycin) in a 5% CO2 humidity incubator at 37° C. Cell imaging: two different kind of cells were grown overnight on a 35 mm petri dish with a cover slip. The live cells were incubated with 200 nM of TPE-IQ-2O for 1, 5, 10, and 20 mins. […] Condition: 200 nM (Filter: both close; Channel 5; EX: 400-440 nm; Exposure time: bright field: 1000 ms Fluorescence: 1000 ms. Two different kinds of cells were grown overnight on a 35 mm petri dish with a cover slip. The live cells were incubated with 200 nM of TPE-IQ-2O for 20, 10, and 5 mins. The MCF-7 cells were stained by TPE-IQ-2O; the COS-7 cells were stained by TPE-IQ-2O; the MCF-7 cells and COS-7 cells were co-cultured and stained together by TPE-IQ-2O. Condition: 200 nM (Filter: both close; Channel 5; EX: 400-440 nm; Exposure time: bright field: 1000 ms Fluorescence: 1000 ms. Two different kinds of cells were grown overnight on a 35 mm petri dish with a cover slip. […] Condition: 200 nM (Filter: both close; Channel 5; EX: 400-440 nm; Exposure time: bright field: 1000 ms Fluorescence: 1000 ms."}, "[4]": {"tested_on": "HepG2 cells", "test": "Cell imaging, HepG2 cells", "assay_type": "cell-based, human", "details": "HepG2, 200 nM, 20 and 10 mins", "procedure": "The PC-9, HepG2, and HCC827 cells were grown overnight on a 35 mm petri dish with a cover slip. The live cells were incubated with 200 nM of TPE-IQ-2O for 20 and 10 mins. In all the experiments, the cancer cells are fluorescent in solely staining.\nas §3"}, "[5]": {"tested_on": "COS-7 cells", "test": "LDH cytotoxicity assay, COS-7 cells", "assay_type": "cell-based, simian", "details": "COS-7, with or without white light irradiation", "procedure": "The HeLa and COS-7 cells were seeded in 96-well plate for 24 hrs. Then a different concentration of TPE-IQ-2O was added into each well. After 30 mins TPE-IQ-2O treatment in the dark, the dye was removed. Half of the cells were treated with white light irradiation for 90 mins and the rest of cells were kept in the dark. After another 24 hrs of incubation, 10 μL of 10× lysis buffer bromide was added to untreated cells as Maximum LDH Activity, while 10 μL ultrapure water was added to other wells. After incubation at 37° C. 5% CO2 for 45 mins, 50 μL of each well sample medium was transferred to a new 96-well plate, followed by addition of 50 μL reaction mixture. 50 μL stop solution were added into each well after 30 mins incubation protected from light. Then the absorbance was achieved by plate reader."}}}
{"smiles": "CCC[n+]1cc2ccc(C(=C(c3ccc(OC)cc3)c3ccc(OC)cc3)c3ccccc3)cc2c(-c2ccccc2)c1-c1ccccc1", "note": "[TPE-IQ-2O, 6-(2,2-bis(4-methoxyphenyl)-1-phenylvinyl)-3,4-diphenyl-2-propylisoquinolin-2-ium]", "values": [{"measurement": "Fluorescence of stained cells", "setting": "[1]", "value": "not stained"}, {"measurement": "Fluorescence in co-culture", "setting": "[2]; HeLa and COS-7 co-cultured and stained together", "value": "fluorescence only from the Hela cancer cell"}, {"measurement": "Fluorescence in co-culture", "setting": "[2]; HeLa and MDCK-II grown in the same environment, 10 mins", "value": "fluorescence only from the Hela cancer cell"}, {"measurement": "Fluorescence of stained cells", "setting": "[2]; HeLa stained alone, 1-20 min", "value": "fluorescent"}, {"measurement": "Fluorescence of stained cells", "setting": "[3]", "value": "not stained"}, {"measurement": "Fluorescence of stained cells", "setting": "[4]", "value": "fluorescent"}, {"measurement": "LDH cytotoxicity", "setting": "[5]", "value": "no obvious cytotoxicity"}]}
